Assay type in all cases: cell-based
Data set [1] concerns C. albicans SC5314. The data set is described as follows: CLSI broth microdilution susceptibility (Table 1). Conditions: 48 h, 35° C.; for MICPI: partial (50%) inhibition; for MICTI: total inhibition. On the procedure:
(§1) ICAN has 3 key moieties, namely the amino, naphthalene and isonitrile. To find out which ones of them are essential for the antifungal behavior and to design more efficient derivatives, comparative studies were carried out, where one of the moieties was exchanged or eliminated. All ICAN derivatives were tested against C. albicans SC5314, C. krusei ATCC 6258 and C. parapsilosis ATCC 22019. The antifungal agents were dissolved in 100% DMSO and diluted further in RPMI-1640 (with L-glutamine but without bicarbonate) and buffered to pH 7.0 with 0.165 M morpholinopropanesulfonic acid (MOPS). MICs were read visually after 48-h incubation at 35° C. using the partial (50%) inhibition (for ICAN derivatives) (PI) and total inhibition (for AMB and ICAN derivatives) (TI) criteria. MICs were determined at least twice.
(§2) The tested C. albicans, C. tropicalis, C. parapsilosis, C. glabrata and C. krusei ATCC strains and clinical isolates are listed in Table 2. MICs were determined according to the CLSI M27-A3 [22]. Antifungal agents were dissolved in 100% DMSO and diluted further in RPMI-1640 (with L-glutamine but without bicarbonate) (Sigma, Budapest, Hungary), and buffered to pH 7.0 with 0.165 M morpholinopropanesulfonic acid (MOPS; Sigma, Budapest, Hungary). The final concentration ranges used for AMB and ICAN derivatives were 0.125 to 4 μg/ml and 0.04 to 20 μg/ml, respectively. Yeast cell suspensions were prepared in RPMI 1640 medium and were adjusted to give a final inoculum concentration of 0.5×10^3 to 2.5×10^3 cells/ml. MICs were read visually after 48-h incubation at 35° C. using the partial (50%) inhibition (for ICAN derivatives) (PI) and total inhibition (for AMB and ICAN derivatives) (TI) criteria. MICs were determined at least twice. For amphotericin B isolates with MIC values of ≤2 mg/L were considered wild-types. [Pfaller M A, 2012]
(In general: Dilution methods test growth across graded concentrations, often in twofold steps.)

Data set [2] relates to C. krusei ATCC 6258. Nature of the data set: CLSI broth microdilution susceptibility (Table 1). The note with it: 48 h, 35° C.; for MICPI: partial (50%) inhibition; for MICTI: total inhibition. On the procedure: as §1, §2
Data set [3] relates to C. parapsilosis ATCC 22019. Nature of the data set: CLSI broth microdilution susceptibility (Table 1). Conditions: 48 h, 35° C.; for MICPI: partial (50%) inhibition; for MICTI: total inhibition. How it is done: as §1, §2
For data set [4], the system named is C. albicans SC5314, C. krusei ATCC 6258 and C. parapsilosis ATCC 22019. Nature of the data set: CLSI broth microdilution, MIC summarised over the three Candida test strains. The note with it: for MICTI: value or range over the three Candida strains of Table 1, total inhibition. How it is done:
as §1, §2

The test system of data set [5] is human cell cultures. The data set is described as follows: MTT bio assay cytotoxicity. The note with it: MTT bio assay technique.

Regarding `Nc1cccc2c(N)cccc12` [DAN, 1,5-diaminonaphthalene, reference compound], the MICPI in data set [1], in data set [2] and in data set [3] was 50 µg/mL throughout. For the same molecule, the MICTI in data set [1], in data set [2] and in data set [3] was 100 µg/mL throughout.
For the molecule `[C-]#[N+]c1cccc2c([N+]#[C-])cccc12` [DIN, 1,5-diisocyanonaphthalene], the MICPI in data set [4] (value or range over the three Candida strains of Table 1, partial (50%) inhibition) came out at 0.3 µg/mL; in data set [1] it was 0.3 µg/mL; in data set [2], 0.3 µg/mL; in data set [3] it was 0.3 µg/mL. The MICTI in data set [4], in data set [1], in data set [2] and in data set [3] was 0.6 µg/mL throughout.
In the case of `[C-]#[N+]c1cccc2c(NCC)cccc12` [EICAN, N-ethyl-1-amino-5-isocyanonaphthalene], the MICTI in data set [4] is 1.25 to 2.5 µg/mL; in data set [1], 2.5 µg/mL; in data set [2], 1.25 µg/mL; in data set [3] it was 1.25 µg/mL. The MICPI in data set [1], in data set [2] and in data set [3] was 0.6 µg/mL each time.
`[C-]#[N+]c1cccc2c(N)cccc12` [ICAN, 1-amino-5-isocyanonaphthalene]: the MICTI was 0.6 to 5 µg/mL in data set [4], 5 µg/mL in data set [1], 2.5 µg/mL in data set [2] and 0.6 µg/mL in data set [3]. Further, the figures for the MICPI in data set [1], in data set [2] and in data set [3] were 1.25 µg/mL, 0.6 µg/mL and 0.3 µg/mL, respectively. The molecule also had an LD50 in data set [5] of 10 µg/mL.
`[C-]#[N+]c1ccc([N+]#[C-])cc1` [PDI, 1,4-phenylenediisocyanide, reference compound]: the MICPI in data set [1], in data set [2] and in data set [3] was 50 µg/mL each time. Besides, the MICTI in data set [1], in data set [2] and in data set [3] was 100 µg/mL each time.
For the molecule `[C-]#[N+]c1cccc2c(NCCC)cccc12` [PICAN, N-(prop-1-yl)-1-amino-5-isocyanonaphthalene], the MICTI is 1.75-2. μg/ml in data set [4], 2.5 µg/mL in data set [1], 2.5 µg/mL in data set [2] and 1.75 µg/mL in data set [3]. The MICPI in data set [1] amounted to 0.6 µg/mL; in data set [2], 0.15 µg/mL; in data set [3], 0.6 µg/mL.

Values taken from patent publication US20230048678A1, “ICAN DERIVATIVES FOR ANTIFUNGAL USE” (DEBRECENI EGYETEM, priority 2019, published 2023).
